Laboratory results taken from the supplement of paper PMC13380429.

Assays:
[1] = system: A549-ACE2 infected with SARS-CoV-2; assay: cell count relative to DMSO; higher = less toxic; settings: 24 h
Caco-2 [2] = assay: cell viability relative to DMSO; higher = less toxic; settings: 72 h
Calu-3 [3] = assay: as above; settings: 72 h
HepG2 [4] = assay: as above; settings: 72 h
U2OS [5] = assay: as above; settings: 72 h
Vero E6 [6] = assay: as above; settings: 72 h
[7] = system: A549-ACE2 infected with SARS-CoV-2; assay: SARS-CoV-2 infection rate relative to DMSO; higher = more infection; settings: 24 h
A549-ACE2 [8] = assay: phospholipidosis EC50; higher = less potent phospholipidosis inducer
A549-ACE2 [9] = assay: drug-induced phospholipidosis relative to tamoxifen; higher = more phospholipidosis
[10] = system: A549-ACE2 infected with SARS-CoV-2; assay: morphology score (similarity to uninfected cells); higher = more like uninfected cells; settings: 24 h
Calu-3 [11] = assay: relative viability EC50 (midpoint between 100% and the lowest measured viability); higher = less toxic; settings: 72 h
HepG2 [12] = assay: as above; settings: 72 h
Vero E6 [13] = assay: as above; settings: 72 h
Caco-2 [14] = assay: drug sensitivity score (DSS) for viability; higher = more toxic; extreme values may be limits of the assay; settings: 72 h
Calu-3 [15] = assay: as above; settings: 72 h
HepG2 [16] = assay: as above; settings: 72 h
U2OS [17] = assay: as above; settings: 72 h
Vero E6 [18] = assay: as above; settings: 72 h
Caco-2 [19] = assay: relative viability EC50 (midpoint between 100% and the lowest measured viability); higher = less toxic; settings: 72 h
U2OS [20] = assay: as above; settings: 72 h

CCN(CC)CC1CCN(c2ncc3ncnc(Nc4ccc(F)c(Cl)c4)c3n2)CC1 [BIBU-1361]
Settings	SARS-CoV-2 infection rate [%]	cell count [%]	cell viability [%]	morphology score	phospholipidosis EC50 [nM]
A549-ACE2 [8], 24 h	–	–	–	–	3200
A549-ACE2 [8], 48 h	–	–	–	–	3880
A549-ACE2 [8], 72 h	–	–	–	–	3900
Caco-2 [2], 1 nM	–	–	98	–	–
Caco-2 [2], 10 nM	–	–	85.1	–	–
Caco-2 [2], 100 nM	–	–	103	–	–
Caco-2 [2], 1000 nM	–	–	74.1	–	–
Caco-2 [2], 10000 nM	–	–	50.3	–	–
Calu-3 [3], 1 nM	–	–	100	–	–
Calu-3 [3], 10 nM	–	–	100	–	–
Calu-3 [3], 100 nM	–	–	90.7	–	–
Calu-3 [3], 1000 nM	–	–	56.7	–	–
Calu-3 [3], 10000 nM	–	–	8.7	–	–
HepG2 [4], 1 nM	–	–	100	–	–
HepG2 [4], 10 nM	–	–	100	–	–
HepG2 [4], 100 nM	–	–	106	–	–
HepG2 [4], 1000 nM	–	–	90	–	–
HepG2 [4], 10000 nM	–	–	40.4	–	–
U2OS [5], 1 nM	–	–	100	–	–
U2OS [5], 10 nM	–	–	104	–	–
U2OS [5], 100 nM	–	–	101	–	–
U2OS [5], 1000 nM	–	–	96.6	–	–
U2OS [5], 10000 nM	–	–	57.3	–	–
Vero E6 [6], 1 nM	–	–	97.3	–	–
Vero E6 [6], 10 nM	–	–	96.4	–	–
Vero E6 [6], 100 nM	–	–	93.1	–	–
Vero E6 [6], 1000 nM	–	–	63.2	–	–
Vero E6 [6], 10000 nM	–	–	42.9	–	–
[1], 0.3 µM	–	105	–	–	–
[1], 3 µM	–	117	–	–	–
[1], 10 µM	–	122	–	–	–
[1], 30 µM	–	72	–	–	–
[7], 0.3 µM	98	–	–	–	–
[7], 3 µM	26	–	–	–	–
[7], 10 µM	27	–	–	–	–
[7], 30 µM	90	–	–	–	–
[10], 0.3 µM	–	–	–	0.01	–
[10], 3 µM	–	–	–	0.87	–
[10], 10 µM	–	–	–	0.28	–
[10], 30 µM	–	–	–	-0.37	–

drug-induced phospholipidosis [%], A549-ACE2 [9]
Settings	0.3 µM	0.833333 µM	3.33333 µM	6.66667 µM	10 µM	30 µM
24 h	2.83	15.5	75.3	121	120	99.8
48 h	4.06	11.5	65.6	111	126	–
72 h	4.98	9.71	51.2	111	123	–

Settings	drug sensitivity score	relative viability EC50 [nM]
Caco-2 [14]	5.9	–
Calu-3 [11]	–	1020
Calu-3 [15]	10.1	–
HepG2 [12]	–	1890
HepG2 [16]	4.9	–
U2OS [17]	2.7	–
Vero E6 [13]	–	573
Vero E6 [18]	7.8	–

Cc1ccc(C(=O)Nc2cccc(C(F)(F)F)c2)cc1Nc1nc(-c2cccnc2)nc2c1cnn2C [NVP-BHG712]
Settings	SARS-CoV-2 infection rate [%]	cell count [%]	cell viability [%]	morphology score	phospholipidosis EC50 [nM]
A549-ACE2 [8], 24 h	–	–	–	–	1650
A549-ACE2 [8], 48 h	–	–	–	–	2210
A549-ACE2 [8], 72 h	–	–	–	–	3750
Caco-2 [2], 1 nM	–	–	93.9	–	–
Caco-2 [2], 10 nM	–	–	93.5	–	–
Caco-2 [2], 100 nM	–	–	101	–	–
Caco-2 [2], 1000 nM	–	–	96.6	–	–
Caco-2 [2], 10000 nM	–	–	107	–	–
Calu-3 [3], 1 nM	–	–	100	–	–
Calu-3 [3], 10 nM	–	–	95.2	–	–
Calu-3 [3], 100 nM	–	–	96.3	–	–
Calu-3 [3], 1000 nM	–	–	108	–	–
Calu-3 [3], 10000 nM	–	–	102	–	–
HepG2 [4], 1 nM	–	–	117	–	–
HepG2 [4], 10 nM	–	–	104	–	–
HepG2 [4], 100 nM	–	–	96.5	–	–
HepG2 [4], 1000 nM	–	–	48.6	–	–
HepG2 [4], 10000 nM	–	–	74.1	–	–
U2OS [5], 1 nM	–	–	95.7	–	–
U2OS [5], 10 nM	–	–	94.3	–	–
U2OS [5], 100 nM	–	–	109	–	–
U2OS [5], 1000 nM	–	–	95.5	–	–
U2OS [5], 10000 nM	–	–	105	–	–
Vero E6 [6], 1 nM	–	–	96.5	–	–
Vero E6 [6], 10 nM	–	–	102	–	–
Vero E6 [6], 100 nM	–	–	98.1	–	–
Vero E6 [6], 1000 nM	–	–	109	–	–
Vero E6 [6], 10000 nM	–	–	108	–	–
[1], 0.3 µM	–	98	–	–	–
[1], 3 µM	–	111	–	–	–
[1], 10 µM	–	69	–	–	–
[1], 30 µM	–	93	–	–	–
[7], 0.3 µM	99	–	–	–	–
[7], 3 µM	68	–	–	–	–
[7], 10 µM	41	–	–	–	–
[7], 30 µM	84	–	–	–	–
[10], 0.3 µM	–	–	–	-0.1	–
[10], 3 µM	–	–	–	0.35	–
[10], 10 µM	–	–	–	0.14	–
[10], 30 µM	–	–	–	0.25	–

drug-induced phospholipidosis [%], A549-ACE2 [9]
Settings	0.3 µM	0.833333 µM	3.33333 µM	6.66667 µM	10 µM	30 µM
24 h	3.95	19.7	113	126	120	138
48 h	7.5	21.5	139	176	183	–
72 h	7.15	18.8	137	208	244	–

Settings	drug sensitivity score	relative viability EC50 [nM]
Caco-2 [14]	0	–
Caco-2 [19]	–	> 10000
Calu-3 [11]	–	> 10000
Calu-3 [15]	0	–
HepG2 [12]	–	264
HepG2 [16]	9.9	–
U2OS [17]	0	–
U2OS [20]	–	> 10000
Vero E6 [13]	–	> 10000
Vero E6 [18]	0	–
